Assay results: ChEMBL document CHEMBL1777747, “Design and synthesis of an ER-specific fluorescent probe based on carboxylesterase activity with quinone methide cleavage process” (Bioorg Med Chem Lett, 2011); call rule not given here

Columns and labels:
COS-1 = assay: Cytotoxicity against african green monkey COS1 cells by trypan blue method; assay type: cell-based; details: chlorocebus aethiops
Cocaine esterase [1] = target: T1, Cocaine esterase (Homo sapiens, UniProt O00748); assay: Activity at carboxylesterase in human HT-1080 cells assessed as accumulation of resorufin in nucleus at 50 uM after 120 mins by phase contrast microscopic analysis; assay type: ADME, cell-based; details: ht-1080, 2 h
T1 sequence (O00748 whole entry): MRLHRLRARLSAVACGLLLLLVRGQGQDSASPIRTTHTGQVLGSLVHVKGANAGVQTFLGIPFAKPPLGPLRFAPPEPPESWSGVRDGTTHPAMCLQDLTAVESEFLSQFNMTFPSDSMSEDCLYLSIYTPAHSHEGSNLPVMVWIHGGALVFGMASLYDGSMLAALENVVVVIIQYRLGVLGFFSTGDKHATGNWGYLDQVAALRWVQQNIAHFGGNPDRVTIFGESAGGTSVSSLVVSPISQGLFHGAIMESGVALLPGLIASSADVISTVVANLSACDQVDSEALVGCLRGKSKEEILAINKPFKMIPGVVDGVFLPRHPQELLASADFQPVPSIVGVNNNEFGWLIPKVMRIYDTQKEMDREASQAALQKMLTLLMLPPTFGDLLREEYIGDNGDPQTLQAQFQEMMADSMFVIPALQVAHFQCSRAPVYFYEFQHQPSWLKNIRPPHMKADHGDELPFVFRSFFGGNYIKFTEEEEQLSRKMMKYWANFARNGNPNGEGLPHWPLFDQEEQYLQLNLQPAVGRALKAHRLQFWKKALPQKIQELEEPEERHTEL

Sus scrofa = species on record: Sus scrofa; assay: Activity at porcine liver esterase assessed as amount of enzyme required to liberate 1 umol of resorufin/min from compound by fluorescence assay
[2] = Activity at carboxylesterase in african green monkey COS1 cells assessed as accumulation of resorufin in endoplasmic reticulum at 50 uM after 120 mins by phase contrast microscopic analysis; assay type: ADME, cell-based; details: chlorocebus aethiops, cos-1, 2 h
HT-1080 = assay: Cytotoxicity against human HT1080 cells by trypan blue method; assay type: cell-based
[3] = Activity at carboxylesterase in african green monkey COS1 cells assessed as accumulation of resorufin in nucleus at 50 uM after 120 mins by phase contrast microscopic analysis; assay type: ADME, cell-based; details: chlorocebus aethiops, cos-1, 2 h
Cocaine esterase [4] = target: T1, Cocaine esterase; assay: Activity at carboxylesterase in human HT-1080 cells assessed as accumulation of resorufin in endoplasmic reticulum at 50 uM after 120 mins by phase contrast microscopic analysis; assay type: ADME, cell-based; details: ht-1080, 2 h

CCCC(=O)Oc1ccc(COc2ccc3nc4ccc(=O)cc-4oc3c2)cc1
Activity (COS-1): Non-toxic | Activity (Cocaine esterase [1]): Active | Activity (Sus scrofa): 0.05 U/mg | Activity [2]: Active | Activity (HT-1080): Non-toxic | Activity [3]: Active | Activity (Cocaine esterase [4]): Active
